Test results published in patent US20070178577A1, “Method for effecting the anaerobic biological decomposition of organsiloxanes” (WACKER CHEMIE AG, priority 2004, published 2007).

Key:
[1] = tested on: Sewage sludge; test: Anaerobic decomposition of octamethylcyclosiloxane (D4) by sewage sludge with nitrate as electron acceptor, gas chromatography; conditions: in 11 days
Procedure: The experiment was carried out in accordance with Example 1. In each case five flasks were made up with sewage sludge and five flasks with inactivated sewage sludge. As carbon source, octamethylcyclosiloxane (D4) was added to the medium. The siloxane is immiscible with water and first forms an oily film on the culture surface. With advancing culture time, the siloxane oil is emulsified in the culture. Relatively large cell aggregates form. Culture proceeds in accordance with Example 1 in the mineral medium specified there (SM1) comprising 5 g/l of KNO3 as electron acceptor. As sole carbon source, octamethylcyclosiloxane (D4) was added to the batches (1 ml per 100 ml of medium). After differing incubation times, the D4 content of the batches was determined. The entire batch was extracted 3 times with 50 ml of pentane, and to facilitate phase separation, it was centrifuged each time. The pentane phases were combined and D4 determined quantitatively directly by means of gas chromatography (Hewlett Packard instrument hp5890_li). The gas-chromatographic determination proceeded using a 30 m capillary (Hewlett Packard HP-1 No. 59026323) using nitrogen as carrier gas. Temperature program: 50° C. (5 min)−270° C. at 20° C./min. Detection was by means of FID at 300° C. The resultant signal peaks were quantified using corresponding standard solutions.

[2] = tested on: Sewage sludge from a municipal sewage treatment plant; test: Anaerobic decomposition of dimethylsilanediol (DMSD) by sewage sludge with nitrate as electron acceptor, 1H-NMR; conditions: in 11 days
Text: Sewage sludge from a municipal sewage treatment plant was taken off from running operations under oxygen-free conditions (N2-comprising sample vessels). To separate off interfering substrates, the cell mass was resuspended in 5-times the volume of an oxygen-free buffer (50 mmol/l of potassium phosphate pH 6.8) and centrifuged off. Oxygen-free solutions were produced by degassing the solution and purging with gaseous nitrogen.
The operation (resuspending/centrifuging) was repeated 3 times.
The washed oxygen-free cell mass was transferred in the absence of oxygen into shake flasks comprising culture medium (10 g of moist cell mass per 100 ml of medium). For control batches, the sewage sludge was autoclaved and inactivated thereby. […]
As electron acceptor, in addition, 5 g/l of KNO3 were added. […] Samples of the culture medium were taken off at regular intervals and analyzed immediately. […]
Analysis: In experiments using DMSD as a substrate, the change in concentration of DMSD in the aqueous phase was determined by means of proton magnetic resonance spectroscopy (^1H-NMR). […] Samples (0.9 ml) from the culture batches were taken off for this directly (via the stopper) from the vessel, admixed with standard (TSP in D2O; TSP=3-(trimethylsilyl)propionic acid-D4 sodium salt) and analyzed in the spectrometer. The DMSD signal can be quantified exactly via the known standard signal).

[3] = anaerobically incubated batch comprising sewage sludge
[4] = control batch (inactivated sewage sludge)

SMILES | decrease in the amount of D4 [1, 3] [%] | decrease in the amount of D4 [1, 4] [%] | decrease of the amount of DMSD [2, 3] [%] | decrease of the amount of DMSD [2, 4] [%]
C[Si]1(C)O[Si](C)(C)O[Si](C)(C)O[Si](C)(C)O1 [D4, Octamethylcyclosiloxane] | −16.3 | −6.2 | – | –
C[Si](C)(O)O [DMSD, Dimethylsilanediol] | – | – | −39 | −9
